Test results from paper PMC12017579, “Phase separation of the PRPP amidotransferase into dynamic condensates promotes de novo purine synthesis in yeast” (PLOS Biology, 2025).
Positions count from the first letter of the chain named.

Assays:
Assay in all cases: in vitro condensation assay, fluorescence microscopy of Ade4-mNG particles
Format in all cases: binding
[1] = biological target: T1, Ade4-mNG (yeast PPAT Ade4) (Saccharomyces cerevisiae, UniProt P04046); details: inhibits self-assembly, 0.2 µM protein, 10% PEG8K
T1 construct: full length, C-terminal mNeonGreen and Strep-tag II kept; purified from budding yeast cells
T1 sequence (P04046 2-510): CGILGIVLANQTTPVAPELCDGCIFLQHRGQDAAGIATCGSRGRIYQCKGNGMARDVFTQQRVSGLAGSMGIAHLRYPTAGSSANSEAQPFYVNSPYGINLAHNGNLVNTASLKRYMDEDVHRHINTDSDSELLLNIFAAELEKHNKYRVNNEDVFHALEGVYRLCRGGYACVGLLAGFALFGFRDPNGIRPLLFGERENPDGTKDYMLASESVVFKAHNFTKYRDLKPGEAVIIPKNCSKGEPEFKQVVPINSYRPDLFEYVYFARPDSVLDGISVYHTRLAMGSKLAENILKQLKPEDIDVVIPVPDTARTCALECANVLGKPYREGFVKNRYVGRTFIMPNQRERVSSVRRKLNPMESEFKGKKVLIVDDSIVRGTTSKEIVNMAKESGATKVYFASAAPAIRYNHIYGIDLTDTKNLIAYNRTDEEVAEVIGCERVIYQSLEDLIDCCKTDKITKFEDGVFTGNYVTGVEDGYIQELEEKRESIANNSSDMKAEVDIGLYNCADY

Ade4∆IDR-mNG = biological target: T2, Ade4∆IDR-mNG (Saccharomyces cerevisiae, UniProt P04046); details: inhibits self-assembly; 500 µM AMP, 0.2 µM protein, 10% PEG8K
T2 construct: C-terminal mNeonGreen and Strep-tag II kept; purified from budding yeast
T2 sequence (P04046 2-480 limits assumed): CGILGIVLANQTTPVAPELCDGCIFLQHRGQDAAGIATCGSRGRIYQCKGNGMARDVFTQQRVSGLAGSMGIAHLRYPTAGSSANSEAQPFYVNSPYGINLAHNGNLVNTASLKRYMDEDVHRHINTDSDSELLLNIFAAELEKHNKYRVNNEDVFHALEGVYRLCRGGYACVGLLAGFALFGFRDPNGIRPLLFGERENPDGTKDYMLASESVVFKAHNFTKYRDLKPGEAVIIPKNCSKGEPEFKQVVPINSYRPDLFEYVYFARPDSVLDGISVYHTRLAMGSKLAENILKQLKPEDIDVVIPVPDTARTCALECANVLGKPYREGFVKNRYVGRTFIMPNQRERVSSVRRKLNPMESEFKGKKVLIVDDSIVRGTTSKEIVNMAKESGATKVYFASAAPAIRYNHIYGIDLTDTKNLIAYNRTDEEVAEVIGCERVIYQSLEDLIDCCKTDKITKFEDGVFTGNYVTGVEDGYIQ

[2] = biological target: T3, Ade4-mNG (yeast PPAT Ade4) (Saccharomyces cerevisiae, UniProt P04046, D373A/D374A); details: inhibits self-assembly, less than wild type; 1 mM AMP, 0.2 µM protein, 10% PEG8K
T3 construct: full length, C-terminal mNeonGreen and Strep-tag II kept; purified from budding yeast cells
T3 sequence (P04046 2-510 D373A/D374A): T1 sequence (P04046 2-510) with D372A, D373A

## Nc1ncnc2c1ncn2[C@@H]1O[C@H](COP(=O)(O)OP(=O)(O)O)[C@@H](O)[C@H]1O [ADP]
[1]; 5 mM MgCl2, pH 7.5
  in vitro condensation assay, fluorescence microscopy of Ade4-mNG particles: In the presence of GMP, AMP, ADP, and ATP, the condensation of Ade4-mNG was significantly reduced

## Nc1ncnc2c1ncn2[C@@H]1O[C@H](COP(=O)(O)O)[C@@H](O)[C@H]1O [AMP]
[1]; 5 mM MgCl2, pH 7.5, counteracted by PRPP
  in vitro condensation assay, fluorescence microscopy of Ade4-mNG particles: In the presence of GMP, AMP, ADP, and ATP, the condensation of Ade4-mNG was significantly reduced
Ade4∆IDR-mNG
  in vitro condensation assay, fluorescence microscopy of Ade4-mNG particles: AMP also suppressed the condensation of Ade4∆IDR-mNG
[2]
  in vitro condensation assay, fluorescence microscopy of Ade4-mNG particles: AMP inhibited the assembly of Ade4-DA-mNG condensates, albeit less effectively than that of Ade4-mNG condensates

## Nc1ncnc2c1ncn2[C@@H]1O[C@H](COP(=O)(O)OP(=O)(O)OP(=O)(O)O)[C@@H](O)[C@H]1O [ATP]
[1]; 5 mM MgCl2, pH 7.5
  in vitro condensation assay, fluorescence microscopy of Ade4-mNG particles: In the presence of GMP, AMP, ADP, and ATP, the condensation of Ade4-mNG was significantly reduced

## Nc1nc2c(ncn2[C@@H]2O[C@H](COP(=O)(O)O)[C@@H](O)[C@H]2O)c(=O)[nH]1 [GMP]
[1]; 5 mM MgCl2, pH 7.5
  in vitro condensation assay, fluorescence microscopy of Ade4-mNG particles: In the presence of GMP, AMP, ADP, and ATP, the condensation of Ade4-mNG was significantly reduced

## Nc1ncnc2c1ncn2[C@@H]1O[C@H](CSCC[C@H](N)C(=O)O)[C@@H](O)[C@H]1O [SAH]
[1]; weaker than AMP, 500 µM SAH, 0.5% DMSO
  in vitro condensation assay, fluorescence microscopy of Ade4-mNG particles: exerted approximately one-third the inhibitory effect of AMP
